US5219741A, “Method of making L-proline using an N-acyl-L-protine acylase” (priority 1990, dated 1993)
Entries after “also recorded” stand apart in the source; their conditions may differ. Like-named read-outs stand apart in the source and are kept apart here.

Legend:
N-acyl-L-proline acylase [1] = experiment: Substrate specificity: hydrolysis of N-acyl amino acids and proline derivatives; format: biochemical, Comamonas testosteroni DSM 5416
N-acyl-L-proline acylase [2] = experiment: Dependence of the acylase activity on the substrate concentration (KM); format: biochemical, Comamonas testosteroni DSM 5416; details: 30° C., 0.1M tris-HCl buffer, pH 7.0
Procedure: The reaction temperature was 30° C. and the incubation time 10 minutes. The N-acetyl-L-proline concentration of the reaction batch was varied in a range from 1 to 50 mM.

[3] = system: Comamonas testosteroni DSM 5416; experiment: Growth of the strain in culture medium (OD600); format: cell-based
Procedure: Strains which appeared uniform according to the colony morphology and the microscopic image were then cultivated in 100 ml liquid medium (500 ml Erlenmeyer flask with top and 4 lateral baffles) at 30° C. on a rotary agitator machine at 200 rpms. The culture medium had the following composition: […]
(§1) The carbon source of the culture medium with a concentration of 4 g/l was varied and the influence on growth and acylase formation determined.
(§2) The concentration of N-acetyl-L-proline was varied in a range of 1 g/l-5 g/l in steps of 1 g/l in the culture medium as described in Example 1.
(§3) The concentration of (NH4)2 SO4 was varied in a range of 1 g/l-5 g/l in steps of 1 g/l in the culture medium as described in Example 1.
(§4) The concentration of yeast extract was varied in a range of 1 g/l-5 g/l in steps of 1 g/l in the culture medium as described in Example 1.
(§5) The N-acetyl-L-proline concentration was reduced to 0.2 to 1.0 g/l in the culture medium as described in Example 1 and 4 g/l Na acetate were additionally added.
(§6) The method described above under f) was followed. However, the inductor, N-acetyl-L-proline, was not added to the nutrient medium until the late exponential growth phase after an incubation time of 12 hours.
(§7) The method described above under f) was followed. In addition to N-acetyl-L-proline, various N-acetyl- and N-chloroacetyl amino acids were added to the nutrient medium in a concentration of 1 g/l.

[4] = system: N-acyl-L-proline acylase formation in Comamonas testosteroni DSM 5416; experiment: Acylase formation: specific activity of N-acyl-L-proline acylase in crude extract; format: cell-based
Procedure: After 24 to 48 hours, the cell-containing nutrient medium was centrifuged (15 min., 4,500 g in a cooling centrifuge), the cells were washed twice with 0.9% (w/v) NaCl solution and resuspended in 10 ml 0.1M tris-HCl buffer, pH 7.0.
The microorganisms of this suspension were macerated by ultrasound treatment (Sonifier-Cell Disrupter B-30 of the firm Branson Sonic Power Co., Danbury, Conn., USA) (2 minutes pulsating, corresponding to 1 minute of pure ultrasonic radiation. The cell fragments and non-macerated cells were centrifuged in a cooled centrifuge 30 minutes at 40,000 g and 5° C. The clear supernatant (=crude extract) was used in an enzyme test.
The reaction was started by adding crude extract and the reaction batches customarily incubated for 10 minutes at 30° C. The incubation time and the amount of crude extract were selected so that the linearity range of the enzymatic reaction and of the subsequent proline detection were not exceeded.
The enzymatic reaction was interrupted by pipetting 50 μl of the enzyme sample into 1.25 ml 100% acetic acid. Subsequently, 0.45 ml 0.1M tris-HCl buffer pH 7.0 and 1.25 ml ninhydrin reagent (3 g ninhydrin dissolved by heating in a mixture of 60 ml 100% acetic acid and 40 ml 6M phosphoric acid) were added. The ninhydrin reagent was freshly prepared daily. The test tubes were loosely closed with screw-on caps, incubated 30 minutes at 100° C. and subsequently cooled down in an ice bath.
The L-proline, liberated by the enzymatic hydrolysis, forms a red dye with ninhydrin at 100° C. The absorption of the red dye was measured in a spectrophotometer at 480 nm relative to a control batch without crude extract (=substrate blank). The concentration of the L-proline produced was determined using a straight calibration line with L-proline in a range of 5 to 100 nmoles per 50 μl specimen. The enzyme activity was indicated in international units; thus, one unit (U) corresponded to an amount of 1 μmole L-proline produced per minute.
The protein determination was carried out with a protein-determination kit of the firm Pierce Chemical Co., Rockford, Ill., USA, according to Bradford, Anal. Biochem. 72, pp. 248-254 (1976).
as §1, §2, §3, §4, §5, §6, §7

N-acyl-L-proline acylase [5] = experiment: Stereospecificity of hydrolysis of N-acetyl-D,L-proline; format: biochemical, Comamonas testosteroni DSM 5416
Procedure: The hydrolysis of N-acyl-L-proline, N-acetyl-D,L-proline and N-acetyl-D-proline was determined in the following reaction mixture:
The reaction mixture was incubated for two hours at 30° C. and the L-proline produced was determined by amino acid analysis as in Example 10.

[6] = N-acetyl-L-proline 0.2 g/l + 4 g/l Na acetate, 34 hours
[7] = N-acetyl-L-proline 0.2 g/l added after 12 hours (late exponential growth phase), Na acetate medium, 24 hours further
[8] = N-acetyl-L-proline 0.4 g/l + 4 g/l Na acetate, 34 hours
[9] = N-acetyl-L-proline 0.4 g/l added after 12 hours (late exponential growth phase), Na acetate medium, 24 hours further
[10] = N-acetyl-L-proline 0.6 g/l + 4 g/l Na acetate, 34 hours
[11] = N-acetyl-L-proline 0.6 g/l added after 12 hours (late exponential growth phase), Na acetate medium, 24 hours further
[12] = N-acetyl-L-proline 0.8 g/l + 4 g/l Na acetate, 34 hours
[13] = N-acetyl-L-proline 0.8 g/l added after 12 hours (late exponential growth phase), Na acetate medium, 24 hours further
[14] = N-acetyl-L-proline 1.0 g/l + 4 g/l Na acetate, 34 hours
[15] = N-acetyl-L-proline 1.0 g/l added after 12 hours (late exponential growth phase), Na acetate medium, 24 hours further
[16] = N-acetyl-L-proline 1 g/l in culture medium, 24 hours
[17] = N-acetyl-L-proline 2 g/l in culture medium, 24 hours
[18] = N-acetyl-L-proline 3 g/l in culture medium, 24 hours
[19] = N-acetyl-L-proline 4 g/l in culture medium, 24 hours
[20] = N-acetyl-L-proline 5 g/l in culture medium, 24 hours
[21] = carbon source 4 g/l in culture medium
[22] = inductor 1 g/l + 4 g/l Na acetate, 24 hours

## CC(=O)N1CCC[C@H]1C(=O)O [N-acetyl-L-proline]
N-acyl-L-proline acylase [1]
  Hydrolysis by the acylase (in words): hydrolyzed especially well
N-acyl-L-proline acylase [1]; 20 mM substrate 1.0 ml in 2.0 ml batch, 30° C., pH 7.0, N-acetyl-L-proline = 100%, amino-acid analyzer
  Rel. activity (%): 100%
N-acyl-L-proline acylase [1]; listed as N-acetyl-L proline
  Hydrolysis by the acylase (in words): hydrolyzes
N-acyl-L-proline acylase [1]; proline derivatives, 30° C., pH 7.0, N-acetyl-L-proline = 100%
  Relative Activity (%): 100%
N-acyl-L-proline acylase [2]
  Km: 5 mM
[3]; [6]
  Growth (OD600): 2.27 OD600
[3]; [7]
  Growth (OD600): 2.22 OD600
[3]; [8]
  Growth (OD600): 2.90 OD600
[3]; [9]
  Growth (OD600): 2.28 OD600
[3]; [10]
  Growth (OD600): 2.75 OD600
[3]; [11]
  Growth (OD600): 2.76 OD600
[3]; [12]
  Growth (OD600): 3.04 OD600
[3]; [13]
  Growth (OD600): 2.95 OD600
[3]; [14]
  Growth (OD600): 3.12 OD600
[3]; [15]
  Growth (OD600): 2.88 OD600
[3]; [16]
  Growth (OD600): 1.95 OD600
[3]; [17]
  Growth (OD600): 3.16 OD600
[3]; [18]
  Growth (OD600): 4.32 OD600
[3]; [19]
  Growth (OD600): 5.42 OD600
[3]; [20]
  Growth (OD600): 5.68 OD600
[3]; [21]
  Growth (OD600): 6.0 OD600
[3]; [22]
  Growth (OD600): 3.46 OD600
[4]
  Acylase formation / induction (in words): only formed; also recorded: induced acylase formation
  Optimum concentration in the culture medium for acylase formation: 4 g/L
[4]; [6]
  Spec. activity (U/mg): 0.53 U/mg
[4]; [7]
  Spec. activity (U/mg): 0.50 U/mg
[4]; [8]
  Spec. activity (U/mg): 0.79 U/mg
[4]; [9]
  Spec. activity (U/mg): 0.63 U/mg
[4]; [10]
  Spec. activity (U/mg): 1.41 U/mg
[4]; [11]
  Spec. activity (U/mg): 0.96 U/mg
[4]; [12]
  Spec. activity (U/mg): 1.70 U/mg
[4]; [13]
  Spec. activity (U/mg): 0.67 U/mg
[4]; [14]
  Spec. activity (U/mg): 1.55 U/mg
[4]; [15]
  Spec. activity (U/mg): 1.08 U/mg
[4]; [16]
  Spec. activity (U/mg): 1.33 U/mg
[4]; [17]
  Spec. activity (U/mg): 1.36 U/mg
[4]; [18]
  Spec. activity (U/mg): 1.77 U/mg
[4]; [19]
  Spec. activity (U/mg): 1.84 U/mg
[4]; [20]
  Spec. activity (U/mg): 0.94 U/mg
[4]; [21]
  Spec. activity (U/mg): 2.26 U/mg
[4]; [22]
  Spec. activity (U/mg): 1.34 U/mg
N-acyl-L-proline acylase [5]
  Stereospecific hydrolysis (in words): hydrolyzes
N-acyl-L-proline acylase [5]; substrate 10 mmol/l, two hours at 30° C., pH 7.0
  L-proline (mmol/l) produced: 10.25 mmol/L
